Experimental data from ChEMBL document CHEMBL1201862, “PubChem BioAssay data set” (2004).
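Cells were grown in 96-well plates and exposed to each compound for 48 hours at five concentrations; endpoints were interpolated linearly between bracketing concentrations, or set to the highest concentration if not reached. GI50 is the concentration that inhibits growth by half.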 The source made the active and inactive calls. Cut-off read from the data, not from the text of the source: active = GI50 up to about 1.1 µM and inactive = higher.

What was measured:
Assay in all cases: NCI-60 cell line screen, 48 h
SW-620 = tested on: SW-620
OVCAR-3 = tested on: OVCAR-3
SK-MEL-28 = tested on: SK-MEL-28
OVCAR-4 = tested on: OVCAR-4
Malme-3M = tested on: Malme-3M
HCT-116 = tested on: HCT-116
SF-268 = tested on: SF-268
MOLT-4 = tested on: MOLT-4
NCI-H23 = tested on: NCI-H23
EKVX = tested on: EKVX
UACC-62 = tested on: UACC-62
OVCAR-8 = tested on: OVCAR-8
SK-MEL-2 = tested on: SK-MEL-2
TK-10 = tested on: TK-10
A498 = tested on: A498
NCI-H460 = tested on: NCI-H460
RXF 393 = tested on: RXF 393

Compound	GI50 (SW-620)	GI50 (OVCAR-3)	GI50 (SK-MEL-28)	GI50 (OVCAR-4)	GI50 (Malme-3M)	GI50 (HCT-116)	GI50 (SF-268)	GI50 (MOLT-4)	GI50 (NCI-H23)	GI50 (EKVX)	GI50 (UACC-62)	GI50 (OVCAR-8)	GI50 (SK-MEL-2)	GI50 (TK-10)	GI50 (A498)	GI50 (NCI-H460)	GI50 (RXF 393)
OCC1OC(c2nc(C3=NCCCN3)cs2)C(O)C1O (centres undefined)	> 100 µM (inactive)	> 10 µM (inactive)	> 100 µM (inactive)	> 100 µM (inactive)	> 100 µM (inactive)	> 100 µM (inactive)	> 100 µM (inactive)	> 100 µM (inactive)	> 100 µM (inactive)	> 100 µM (inactive)	> 100 µM (inactive)	> 100 µM (inactive)	> 100 µM (inactive)	> 100 µM (inactive)	> 100 µM (inactive)	> 100 µM (inactive)	–
CC(C)CCC[C@@H](C)[C@H]1CC[C@H]2[C@@H]3CC=C4CC(OCCCCN(O)CCCSC5OC(CO)C(O)C(O)C5O)CC[C@]4(C)[C@H]3CC[C@]12C (some centres undefined)	22.6 µM (inactive)	–	> 100 µM (inactive)	> 100 µM (inactive)	–	56.1 µM (inactive)	52.7 µM (inactive)	34 µM (inactive)	45.2 µM (inactive)	> 100 µM (inactive)	> 100 µM (inactive)	74.1 µM (inactive)	17.4 µM (inactive)	> 100 µM (inactive)	> 100 µM (inactive)	39.9 µM (inactive)	79.3 µM (inactive)
C/C=C(\C)c1cc(O)c(C)c2c1Oc1cc(O)c(Cl)c(C)c1C(=O)O2	19.6 µM (inactive)	–	22.4 µM (inactive)	16.7 µM (inactive)	–	> 10 µM (inactive)	30.5 µM (inactive)	–	18.9 µM (inactive)	26.8 µM (inactive)	–	21.4 µM (inactive)	21.5 µM (inactive)	16.2 µM (inactive)	–	20 µM (inactive)	18.8 µM (inactive)
CN(C)c1nc(N(C)c2ccccc2)[s+]s1	> 100 µM (inactive)	–	64.3 µM (inactive)	> 100 µM (inactive)	60.4 µM (inactive)	41.7 µM (inactive)	63.5 µM (inactive)	–	65.6 µM (inactive)	> 100 µM (inactive)	12.3 µM (inactive)	66.7 µM (inactive)	> 100 µM (inactive)	> 100 µM (inactive)	50.8 µM (inactive)	16.7 µM (inactive)	> 100 µM (inactive)
CCOc1cccc2nc3cccc(C(=O)NCCN(C)C)c3nc12	0.543 µM (active)	1.6 µM (inactive)	1.93 µM (inactive)	1.19 µM (inactive)	0.995 µM (active)	0.447 µM (active)	–	0.333 µM (active)	1.39 µM (inactive)	2.25 µM (inactive)	1.47 µM (inactive)	0.891 µM (active)	1.6 µM (inactive)	1.27 µM (inactive)	0.74 µM (active)	–	1.59 µM (inactive)
COc1ccc(NC(=O)C2C(=O)N(c3ccc(OC)cc3)C(=O)/C2=N\N)cc1 (centres undefined)	> 100 µM (inactive)	–	> 100 µM (inactive)	–	> 100 µM (inactive)	> 100 µM (inactive)	> 100 µM (inactive)	> 100 µM (inactive)	> 100 µM (inactive)	> 100 µM (inactive)	> 100 µM (inactive)	> 100 µM (inactive)	> 100 µM (inactive)	> 100 µM (inactive)	> 100 µM (inactive)	> 100 µM (inactive)	> 100 µM (inactive)
CCN1CCC(O)(/C=C/c2ccc(Cl)cc2)C(C(=O)/C=C/c2ccc(Cl)cc2)C1 (centres undefined)	21.2 µM (inactive)	18.9 µM (inactive)	21.6 µM (inactive)	29.6 µM (inactive)	> 100 µM (inactive)	3.63 µM (inactive)	30.4 µM (inactive)	23.9 µM (inactive)	20.2 µM (inactive)	43.9 µM (inactive)	17.3 µM (inactive)	24.4 µM (inactive)	69.3 µM (inactive)	31.1 µM (inactive)	17.3 µM (inactive)	28 µM (inactive)	–
C=CCCC12CCCC(=O)C1Sc1ccc3ccccc3c12 (centres undefined)	15.9 µM (inactive)	13.6 µM (inactive)	20.7 µM (inactive)	28.6 µM (inactive)	16.4 µM (inactive)	–	31.3 µM (inactive)	13.2 µM (inactive)	19.7 µM (inactive)	21.6 µM (inactive)	11.9 µM (inactive)	32.1 µM (inactive)	13.4 µM (inactive)	20.9 µM (inactive)	13.1 µM (inactive)	–	12.2 µM (inactive)
CSc1ccc(OCC2OC2O)cc1 (centres undefined)	18.4 µM (inactive)	30.6 µM (inactive)	–	30.8 µM (inactive)	98.2 µM (inactive)	17.3 µM (inactive)	–	19.4 µM (inactive)	42.5 µM (inactive)	> 93.1 µM (inactive)	47.9 µM (inactive)	55.6 µM (inactive)	> 77.1 µM (inactive)	> 50 µM (inactive)	28.1 µM (inactive)	29.4 µM (inactive)	> 63.7 µM (inactive)
